Measured values as given in patent US8802597B2, “Herbicidal pyrimidines” (E I du Pont de Nemours and Company, priority 2003, dated 2014).
Like-named read-outs stand apart in the source and are kept apart here.

Key:
Assay type in all cases: in vivo
[1] = system: chickweed (Stellaria media); experiment: Test C postemergence; conditions: Stellaria media, post-emergence
Text: Seeds or nutlets of plant species selected from bermudagrass (Cynodon dactylon), Surinam grass (Brachiaria decumbens), cocklebur (Xanthium strumarium), corn (Zea mays), crabgrass (Digitaria sanguinalis), woolly cupgrass (Eriochloa villosa), giant foxtail (Setaria faberii), goosegrass (Eleusine indica), johnsongrass (Sorghum halepense), kochia (Kochia scoparia), lambsquarters (Chenopodium album), morningglory (Ipomoea coccinea), eastern black nightshade (Solanum ptycanthum), yellow nutsedge (Cyperus esculentus), pigweed (Amaranthus retroflexus), common ragweed (Ambrosia elatior), soybean (Glycine max), common (oilseed) sunflower (Helianthus annuus), and velvetleaf (Abutilon theophrasti) were planted and treated preemergence with test chemicals formulated in a non-phytotoxic solvent mixture which included a surfactant.
At the same time, plants selected from these crop and weed species and also winter barley (Hordeum vulgare), blackgrass (Alopecurus myosuroides), canarygrass (Phalaris minor), chickweed (Stellaria media), downy brome (Bromus tectorum), green foxtail (Setaria viridis), Italian ryegrass (Lolium multiflorum), wheat (Triticum aestivum), wild oat (Avena fatua) and windgrass (Apera spica-venti) were treated with postemergence applications of some of the test chemicals formulated in the same manner. Plants ranged in height from 2 to 18 cm (1- to 4-leaf stage) for postemergence treatments. Plant species in the flooded paddy test consisted of rice (Oryza sativa), umbrella sedge (Cyperus difformis), duck salad (Heteranthera limosa) and barnyardgrass (Echinochloa crus-galli) grown to the 2-leaf stage for testing. Treated plants and controls were maintained in a greenhouse for 12 to 14 days, after which time all species were compared to controls and visually evaluated. Plant response ratings, summarized in Table C, are based on a scale of 0 to 100 where 0 is no effect and 100 is complete control. A dash (-) response means no test result.

[2] = system: corn (Zea mays); experiment: Test C pre/postemergence; conditions: for Corn plant response rating (crop injury, 0 = no effect, 100 = complete kill) at 62 g/ha / Corn plant response rating (crop injury, 0 = no effect, 100 = complete kill) at 125 g/ha / Corn plant response rating (crop injury, 0 = no effect, 100 = complete kill) at 250 g/ha / Corn plant response rating (crop injury, 0 = no effect, 100 = complete kill) at 500 g/ha: Zea mays; for Corn plant response rating (crop injury, 0 = no effect, 100 = complete kill) at 500 g/ha: 500 g ai/ha
Method in brief: (§1)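 Pre: seeds planted, sprayed same day. Post: 1- to 4-leaf plants (2–18 cm). Formulation: non-phytotoxic solvent + surfactant. Greenhouse 12–14 d; visual % control vs untreated, 0–100.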

[3] = system: common (oilseed) sunflower (Helianthus annuus); experiment: Test C pre/postemergence; conditions: Preemergence
Method in brief: as §1

[4] = 31 g ai/ha, scale 0 to 100, 0 no effect, 100 complete control
[5] = 62 g ai/ha, scale 0 to 100, 0 no effect, 100 complete control
[6] = Preemergence, 31 g ai/ha, scale 0 to 100, 0 no effect, 100 complete control
[7] = Preemergence, 62 g ai/ha, scale 0 to 100, 0 no effect, 100 complete control
[8] = Preemergence, 125 g ai/ha, scale 0 to 100
[9] = Preemergence, 250 g ai/ha, scale 0 to 100

SMILES	Plant response rating, Sunflower [3, 4]	Plant response rating, Sunflower [3, 5]	Plant response rating, Sunflower ([3]; 125 g ai/ha, scale 0 to 100)	Plant response rating, Sunflower ([3]; 250 g ai/ha, scale 0 to 100)	Plant response rating, Corn [2, 6]	Plant response rating, Corn [2, 7]	Plant response rating, Corn [2, 8]	Plant response rating, Corn [2, 9]	other results
COC(=O)c1nc(C2CC2)nc(N)c1I [Compound 7]	–	–	–	–	–	–	–	–	pest or weed control at 62 g/ha ([1]; 62 g ai/ha, scale 0 to 100 (0 no effect, 100 complete control), read-out: Chickweed plant response rating): 0%; pest or weed control at 125 g/ha ([1]; 125 g ai/ha, scale 0 to 100, read-out: Plant response rating, Chickweed): 0%; pest or weed control at 250 g/ha ([1]; 250 g ai/ha, scale 0 to 100, read-out: Plant response rating, Chickweed): 0%; pest or weed control at 500 g/ha ([1]; 500 g ai/ha, scale 0 to 100, read-out: Plant response rating, Chickweed): 0%; Corn plant response rating (crop injury, 0 = no effect, 100 = complete kill) at 62 g/ha ([2]; post-emergence, Postemergence, 62 g ai/ha, scale 0 to 100 (0 no effect, 100 complete control), read-out: Corn plant response rating): 0%; Corn plant response rating (crop injury, 0 = no effect, 100 = complete kill) at 125 g/ha ([2]; post-emergence, Postemergence, 125 g ai/ha, scale 0 to 100 (0 no effect, 100 complete control), read-out: Corn plant response rating): 0%; Corn plant response rating (crop injury, 0 = no effect, 100 = complete kill) at 250 g/ha ([2]; post-emergence, Postemergence, 250 g ai/ha, scale 0 to 100): 0%; Corn plant response rating (crop injury, 0 = no effect, 100 = complete kill) at 500 g/ha ([2]; post-emergence, Postemergence, scale 0 to 100): 0%
CCOC(=O)Cc1nc(C2CC2)nc(N)c1Br [Compound 12]	0	0	0	85	0	30	60	–	–
COC(=O)Cc1nc(C2CC2)nc(N)c1Br [Compound 13]	5	50	60	90	0	5	10	30	–
Nc1nc(C2CC2)nc(C=O)c1Br [Compound 26]	–	–	–	–	–	–	–	–	pest or weed control at 62 g/ha ([3]; Helianthus annuus, pre-emergence, 62 g ai/ha, scale 0 to 100, 0 no effect, 100 complete control, read-out: Plant response rating, Sunflower): 0%; pest or weed control at 125 g/ha ([3]; Helianthus annuus, pre-emergence, 125 g ai/ha, scale 0 to 100, read-out: Plant response rating, Sunflower): 20%; pest or weed control at 250 g/ha ([3]; Helianthus annuus, pre-emergence, 250 g ai/ha, scale 0 to 100, read-out: Plant response rating, Sunflower): 70%; pest or weed control at 500 g/ha ([3]; Helianthus annuus, pre-emergence, 500 g ai/ha, scale 0 to 100, read-out: Plant response rating, Sunflower): 90%; Corn plant response rating (crop injury, 0 = no effect, 100 = complete kill) at 62 g/ha ([2]; pre-emergence, Preemergence, 62 g ai/ha, scale 0 to 100, 0 no effect, 100 complete control, read-out: Plant response rating, Corn): 0%; Corn plant response rating (crop injury, 0 = no effect, 100 = complete kill) at 125 g/ha ([2]; pre-emergence, Preemergence, 125 g ai/ha, scale 0 to 100, read-out: Plant response rating, Corn): 0%; Corn plant response rating (crop injury, 0 = no effect, 100 = complete kill) at 250 g/ha ([2]; pre-emergence, Preemergence, 250 g ai/ha, scale 0 to 100): 0%; Corn plant response rating (crop injury, 0 = no effect, 100 = complete kill) at 500 g/ha ([2]; pre-emergence, Preemergence, scale 0 to 100): 20%
CCOC(=O)C(Cl)c1nc(C2CC2)nc(N)c1Br (stereo not drawn) [Compound 31]	0	0	5	70	0	0	0	0	–
